In series [1] the test system is SHG44 (human glioma cells). The format is cell-based. The following applies: 72 h. From the text:
(§1) A part of the compounds of the examples of the present disclosure were subjected to a tumor cell proliferation inhibition test by using an MTT method (e.g. Pharmacological Research Method of New Drug, 2007: 242-243, edited by Lu Qiujun).
(§2) A cell strain was selected from KYSE-150 (human esophageal squamous carcinoma cells), MGC803 (human gastric carcinoma cells), and SHG44 (human glioma cells), and frozen and passaged by a pharmacological laboratory of Shanghai Institute of Pharmaceutical Industry. A culture solution was DMEM+10% FBS+double antibody.
(§3) In-vitro activity test: 100 μL of a cell suspension at a concentration of 4-5×10^4/mL was added to each well of a 96-well plate, and placed in a 5% CO2 incubator at 37° C. After 24 h, a sample solution was added at 10 μL/well, double duplicate wells were set, and a reaction was performed at 37° C. with 5% CO2 for 72 h. 20 μL of 5 mg/ml of an MTT solution was added into each well and reacted for 4 h, a dissolving solution was added at 100 μL/well, the mixture was placed in an incubator, and after dissolution, an OD value at 570 nm was measured with a full-wavelength multifunctional microplate reader. An inhibition rate (IR) and a median inhibitory concentration (IC50) were calculated by using an Excel software.
(§4) The inhibition rate (IR %) of the drug on cell growth was calculated according to the following equation: […]

For series [2], the system named is MGC803 (human gastric carcinoma cells). The format is cell-based. The following applies: 72 h.
Source text: as §1, §2, §3, §4

Series [3] relates to KYSE-150 (human esophageal squamous carcinoma cells). It counts as cell-based. The following applies: 72 h.
Source text: as §1, §2, §3, §4

Series [4] has as its system human esophageal cancer KYSE-150. As to the kind of experiment: In-vivo antitumor activity test in human esophageal cancer KYSE-150 (subcutaneous tumor block in nude mice). Details: species or system BALB/C nude mice. The following applies: KYSE-150; 10 mg/kg, Ipx5 each week for 2 continuous weeks; d22. How it is done:
(§5) Animals: BALB/C nude mice (SPF grade), male, and 18-20 g. The compounds were firstly added with DMSO at a total amount of 4%, then added with Tween-80 at a total amount of 2% for assisting dissolution, then added with PEG300 at a total amount of 5%, and finally added with sterilized normal saline to be prepared into a solution at 1 mg/mL. Idasanutlin was firstly added with DMSO at a total amount of 4%, then added with Tween-80 at a total amount of 2% for assisting dissolution, then added with PEG300 at a total amount of 5%, and finally added with sterilized normal saline to be prepared into a solution at 2.5 mg/mL.
A well-grown human esophageal cancer KYSE-150 tumor mass was taken and aseptically cut into uniform small blocks of about 3 mm in size, and a right axilla of each mouse was subcutaneously inoculated with one block through a trocar. […] The animals were regrouped according to a tumor size. The animals with too large and too small tumors were sifted out. An average tumor volume in each group was approximately the same. An administration was started according to the following solution with an administration volume of 0.2 mL/20 g body weight. A long diameter a (mm) of the tumor and a short diameter b (mm) vertical to the tumor were measured by a digital display electronic caliper 2 times a week from day 9 of the inoculation. A tumor volume was calculated by the formula: TV=ab^2/2, and a relative tumor volume was calculated by the formula: RTV=Vt/Vo, wherein Vo was the obtained tumor volume measured at a cage separation (i.e. d1) and Vt was the tumor volume measured at each time. The animals were sacrificed 30 days after the inoculation (d22) and weighed, tumor mass was obtained by dissection and weighed, and the results were determined according to the following formula: […]

Series [5] concerns SW1990 (human pancreatic carcinoma cells). As to the kind of experiment: Tumor cell proliferation inhibition test, CCK-8 method (Example 19). The format is cell-based. The following applies: 72 h. How it is done: (§6) A part of the compounds prepared in the examples of the present disclosure were subjected to a tumor cell proliferation inhibition test by using a CCK-8 method. A cell line HCT116 (human colon carcinoma cells) and SW1990 (human pancreatic carcinoma cells) were purchased from Shanghai Meixuan Technology Co., Ltd. Samples (a part of the compounds prepared in the examples) were dissolved in DMSO (Merck), prepared into a concentration of 10 mM, and finally triply diluted in DMEM or McCoy's 5A 1640 medium to 8 concentration gradients. A cell culture solution was collected when a cell culture met a test requirement, 10 μL of the cell culture solution was uniformly coated on a cell counting plate, cells were counted for 3 times under a microscope, and a cell density was calculated by taking an average value; and a 96-well plate (Corning, #3599) was taken, 200 μL of the cell culture solution was added into each well for cell inoculation at a cell concentration of 6×10^3 cells per well, and the inoculated 96-well plate was incubated in a cell incubator containing 5% CO2 at 37° C. for 24 h. An old culture medium was removed by suction, 200 μL of the triply diluted sample DMEM or McCoy's 5A 1640 medium at an initial concentration of 10 μmol/L was added to each well, the DMSO content was controlled to be 1%, three duplicate wells were set, PBS was used as a blank control, and the plate was incubated in the incubator for 72 h. The original DMEM or McCoy's 5A 1640 medium in the 96-well plate and a PBS buffer in a final row were sucked out, a prepared CCK-8 solution (90% DMEM or McCoy's 5A 1640 medium+10% CCK-8) was added, the mixture was incubated in an incubator, and an absorbance was read by using a Biotek microplate reader. Cell growth inhibition rate IC %=(blank control well OD value−administration well OD value)/blank control well OD value×100%.

The test system of series [6] is HCT116 (human colon carcinoma cells). The series is described as above. It counts as cell-based. The following applies: 72 h. How it is done:
as §6

Series [7] in a line: In-vivo antitumor activity test in human stromal tumor SHG44 (subcutaneous tumor block in nude mice). Details: species or system BALB/C nude mice. The following applies: SHG44; 10 mg/kg, Ipx5 each week for 2 continuous weeks; d22; in g (unit assumed). How it is done:
as §5
(§7) A well-grown human stromal tumor SHG44 mass was taken and aseptically cut into uniform small blocks of about 3 mm in size, and a right axilla of each mouse was subcutaneously inoculated with one block through a trocar. […] The animals were regrouped according to a tumor size. The animals with too large and too small tumors were sifted out. An average tumor volume in each group was approximately the same. An administration was started according to the following solution with an administration volume of 0.2 mL/20 g body weight. A long diameter a (mm) of the tumor and a short diameter b (mm) vertical to the tumor were measured by a digital display electronic caliper 2 times a week from day 9 of the inoculation. A tumor volume was calculated by the formula: TV=ab^2/2, and a relative tumor volume was calculated by the formula: RTV=Vt/Vo, wherein Vo was the obtained tumor volume measured at a cage separation (i.e. d1) and Vt was the tumor volume measured at each time. The animals were sacrificed 30 days after the inoculation (d22) and weighed, tumor mass was obtained by dissection and weighed, and the results were determined according to the following formula: […]

In series [8] the test system is human gastric carcinoma MGC803. As to the kind of experiment: In-vivo antitumor activity test in human gastric carcinoma MGC803 (subcutaneous tumor block in nude mice). Further details: species or system BALB/C nude mice. The following applies: MGC803; 10 mg/kg, Ipx5 each week for 2 continuous weeks; d22. Here is the method:
as §5
as §7, with “gastric carcinoma MGC803” for “stromal”, “tumor” for “tumor SHG44”

pIC50: −log10 of the molar value.

Broadly, the pIC50 is the IC50 on a negative log10 scale, so that one unit is a factor of ten.

Turning to `COc1cc(C(=O)NCCOCCOCCOCCOCCC(=O)N[C@@H](C(=O)N[C@@H](CCCNC(N)=O)C(=O)Nc2ccc(COC(=O)N3CCC(NC(=O)O[C@H]4CC[C@]5(C)C6CC[C@]7(C)[C@@H](c8ccc(=O)oc8)CC[C@]7(O)C6CC[C@@H]5C4)CC3)cc2)C(C)C)ccc1NC(=O)[C@@H]1N[C@@H](CC(C)(C)C)[C@](C#N)(c2ccc(Cl)cc2F)[C@H]1c1cccc(Cl)c1F` (some centres unmarked) [Compound I-4], the pIC50 in series [1] was 6.50; in series [2] it was 5.78; in series [3], 5.97; in series [5], 6.24; in series [6] it was 6.14. For the same compound, the figures for the “Body weight of animals (After a tumor is removed)” value (“Body weight of animals” below) in series [4], in series [7] and in series [8] were 24.99 ± 1.48, 26.10 ± 2.00 and 24.95 ± 1.62, respectively.

Consider `COc1cc(C(=O)NCCOCCOCCOCCOCCC(=O)NCC(=O)NCC(=O)N[C@@H](Cc2ccccc2)C(=O)NCC(=O)Nc2ccc(COC(=O)N3CCN(C(=O)O[C@H]4CC[C@@]5(C)[C@H](CC[C@@H]6[C@@H]5[C@H](O)C(=O)[C@]5(C)[C@@H](c7ccc(=O)oc7)CC[C@]65O)C4)CC3)cc2)ccc1NC(=O)[C@@H]1N[C@@H](CC(C)(C)C)[C@](C#N)(c2ccc(Cl)cc2F)[C@H]1c1cccc(Cl)c1F` [Compound I-16], for which the pIC50 in series [1] is 7.39; in series [2] it was 6.40; in series [3], 6.61; in series [5], 7.66; in series [6], 6.68. Further, the “Body weight of animals” value in series [7] is 25.13 ± 0.97.

Turning to `COc1cc(C(=O)NCCOCCOCCOCCOCCC(=O)NCC(=O)NCC(=O)N[C@@H](Cc2ccccc2)C(=O)NCC(=O)Nc2ccc(COC(=O)N3CCC(NC(=O)O[C@H]4CC[C@]5(C)C6CC[C@]7(C)[C@@H](c8ccc(=O)oc8)CC[C@]7(O)C6CC[C@@H]5C4)CC3)cc2)ccc1NC(=O)[C@@H]1N[C@@H](CC(C)(C)C)[C@](C#N)(c2ccc(Cl)cc2F)[C@H]1c1cccc(Cl)c1F` (some centres unmarked) [Compound I-17], the pIC50 was 6.69 in series [1]; 5.79 in series [2]; 5.72 in series [3]; 6.54 in series [5]; 6.05 in series [6]. Also, the “Body weight of animals” value in series [7] was 25.60 ± 0.98.

The values are drawn from US20240024494A1, “SMALL-MOLECULE CONJUGATE AND USE THEREOF” (SHANGHAI MEWSGEN BIOTECHNOLOGY CO., LTD, priority 2020, published 2024).
